Read-outs that look alike come from different tables or passages of the source.
What was measured:
[1] = cited from earlier work; for T1/2: Human; for Blood or plasma concentration / Time of maximum concentration: in vivo, po
[2] = cited from earlier work
[3] = Phase I clinical trial: 9NC plasma pharmacokinetics; type: in vivo, human
Method: The purpose of quantitation of 9NC from plasma and bronchoalveolar fluids was to determine systemic absorption from the alveolar-capillary exchange surface. Plasma concentrations of total 9NC and the lactone form were measured. For patients who volunteered for pharmacokinetic studies, blood was obtained at various time pints from the start of the aerosol treatment depending on the cohort. For cohort 1 used in the feasibility study blood was obtained at the end of the first week of treatment. Samples were taken at 0, 0.5, 1, 1.25, 1.5, 2, 3, 5, 7, and 24 hours from the start of the 1-hr aerosol exposure. For all other cohorts, samples were obtained at 0, 2, 5, 8, and 24 hours on days 1 and 5 of weeks 1, 4 and 8 where appropriate. Quantitation was performed either by LC/MS, for cohorts 1 and 2, or by HPLC analysis, for cohorts 3 to 6. 9NC plasma concentrations were calculated from the ratio of 9 NC to CPT as internal standard. Extraction of 9NC and its lactone form was performed using Waters C18 Sep-Pak Light cartridges immediately after separating the plasma by a method similar to that previously described (12). Minimal level of detection of 9NC/ml of plasma was 0.5 ng by LC/MS and 1.0 ng by HPLC.

[4] = cited from earlier work; remark: listed apart in the source
[5] = Phase I clinical trial: 9NC in bronchoalveolar lavage fluid or bronchial aspirate; type: in vivo, human
Method: Bronchoscopy was performed by a pulmonologist to obtain either bronchoalveolar lavage (BAL) fluid or bronchial aspirate for quantitation of 9NC. A BAL of the right middle lobe was performed once on volunteering patients at various times after the completion of treatment to study the amount of 9NC retained over time. Concentration of total 9NC in the BAL fluid was corrected for dilution by determining the ration of BUN in the lavage and in a plasma sample taken at the same time (13).

[6] = system: human colon carcinoma xenografts (Squires); test: Growth of human colon carcinoma xenografts in nude mice under liposome aerosol; type: in vivo
[7] = human, in vivo, po; cited from earlier work
[8] = Tissue distribution of CPT after inhalation of CPT liposome aerosol; type: in vivo, Mouse; conditions: Mouse, inhaled in liposome aerosol (30 min), 16.2 μg/kg (486 ng/mouse)
Method: The final suspension was clear. If precipitation occurred, it was reheated to 50-60° C. The preparation was frozen in liquid nitrogen and lyophilized overnight. For use the material was dissolved in sterile water to the appropriate drug concentration, not exceeding 1.0 mg/ml for either drug. The efficiency of incorporation of drug in the liposomes was examined qualitatively by microscopic examination under polarized light. Unincorporated drug was seen as bi-refringent crystals. The efficiency of incorporation was examined by centrifugation of aqueous suspensions of liposomes on Percoll™ gradients. One-tenth ml of suspension was layered over 2 ml of gradient and centrifuged at 2000 rpm for 25-30 minutes. Liposomes layer at the water-Percoll interface, while unincorporated drug was deposited at the bottom of the tube. Many other lipids may be substituted for DLPC in the formulation and use of liposomes for delivery of drugs by aerosol (26).
The mobile phase was 30% acetonitrile and 70% of 0.1% glacial acetic acid. CPT was detected using the Waters 470 scanning fluorescence detector set to an excitation wavelength of 370 nm and an emission wavelength of 440 nm. […] The data were analyzed with the Waters Millenium software.
The deposited dose was calculated to be 486 ng per mouse. The mean concentrations in lungs and liver were similar with smaller concentrations in the other sites examined. […] Drug was cleared promptly from the lungs so that 15 minutes after stopping nebulization only negligible amounts of drug were present in the lungs. Liver, kidney and spleen had substantial amounts of drug initially which gradually diminished through the one hour of study. […] These studies indicate substantial immediate deposition of drug in the lungs with rapid clearance to the viscera. The amount of drug contributed by absorption from swallowed drug is uncertain.

[9] = cohort 1 (0.26 mg/m^2), plasma, DLPC-9NC aerosol

For `CC[C@@]1(O)C(=O)OCc2c1cc1n(c2=O)Cc2cc3c([N+](=O)[O-])cccc3nc2-1` [9-NC, 9-nitro-camptothecin], the T1/2 ([1]; single oral dose 0.1 mg/kg (7 mg/dose)) is given as “(T1/2 = 2.5 h)”, the T1/2 ([1]; single oral dose 1.0 mg/kg (70 mg/dose)) is given as “(T1/2 = 4.9 h)” and the “Blood or plasma concentration” value ([1]; 0.1 mg/kg) is given as 483 ng/mL. The “Time of maximum concentration” value ([1]; 0.1 mg/kg) was 3.4 h, the “Blood or plasma concentration” value ([1]; 1 mg/kg) was 1247 ng/mL and the “Time of maximum concentration” value ([1]; 1 mg/kg) was 5.3 h. The T1/2 ([2]; Mouse, single oral dose 4.1 mg/kg (0.124 mg/dose)) was “(T1/2 = 10 h)”, the “Blood or plasma concentration” value ([2]; mouse, in vivo, po, 4.1 mg/kg) was 732 ng/mL and the “Time of maximum concentration” value ([2]; mouse, in vivo, po, 4.1 mg/kg) was 6 min. For the same compound, the “Range of peak plasma concentration of total 9NC” value ([3]; cohort 1 (0.26 mg/m^2), 5 patients, 1-hour DLPC-9NC aerosol, at 2 hr) was 13.6 to 58.0 ng/mL, the “Mean (±SD) peak plasma concentration of total 9NC” value ([3]; cohort 1 (0.26 mg/m^2), 5 patients, 1-hour DLPC-9NC aerosol, at 2 hr from start, end of first week) was 37.7 ± 20.2 ng/mL and the “T1/2α, mean (±SD)” value [3, 9] was 1.9 ± 1.4 h. The “T1/2β, mean (±SD)” value [3, 9] was 16.4 ± 10.5 h, the “Peak plasma levels in women compared with men” value ([3]; human, in vivo) was “higher” and the “Time for which total 9NC plasma concentrations continued to increase” value ([3]; human, in vivo) was 2 to 3 h. The T1/2 ([4]; Dog, single oral dose 1.0 mg/kg (10 mg/dose)) was “(T1/2 = 6.4 h)”, the “Blood or plasma concentration” value ([4]; dog, in vivo, po, 1 mg/kg) was 19.1 ng/mL and the “Time of maximum concentration” value ([4]; dog, in vivo, po, 1 mg/kg) was 0.7 h. The “9NC in plasma taken at the same time as BAL” value (from here on “9NC in plasma taken … as BAL”) ([5]; Subject 1, cycle 1, day 3, 2.1 hr from start of aerosol) was 43.2 ng/mL, the “9NC in BAL fluid” value ([5]; Subject 1, cycle 1, day 3, 2.1 hr from start of aerosol, cohort 1, 0.26 mg/m^2) was 8.2 ng/mL and the “9NC in plasma taken … as BAL” value ([5]; Subject 3, cycle 4, day 3, 4.8 hr from start of aerosol) was 10.8 ng/mL. The “9NC in BAL fluid” value ([5]; Subject 3, cycle 4, day 3, 4.8 hr from start of aerosol, cohort 1, 0.26 mg/m^2) was 4.3 ng/mL, the “9NC in plasma taken … as BAL” value ([5]; Subject 4, cycle 2, day 4, 3.5 hr from start of aerosol) was 34.2 ng/mL and the “9NC in BAL fluid” value ([5]; Subject 4, cycle 2, day 4, 3.5 hr from start of aerosol, cohort 1, 0.26 mg/m^2) was 25.8 ng/mL. For the same compound, the “9NC in plasma taken at the same time as the aspirate” value ([5]; Subject 6, cycle 1, day 4, 1.2 hr from start of aerosol) was 36.2 ng/mL, the “9NC in lung aspirate” value ([5]; Subject 6, cycle 1, day 4, 1.2 hr from start of aerosol, cohort 1, 0.26 mg/m^2) was 60.7 ng/mL and the “Increase in tumor size, escalated-dose group versus 77 μg/kg group” value ([6]; 77 then 153 then 307 μg/kg per day versus 77 μg/kg throughout, differences not statistically significant) was “slightly less increase in tumor size”. The “Rate of tumor growth versus controls” value ([6]; day 28, P<0.007, Student t test, 2 tailed) was “reduced rate of tumor growth”, the “Emaciation of treated mice” value ([6]; high dose group (up to 307 μg/kg per day)) was “suggesting drug toxicity” and the Another side effect [7] was “chemical cystitis with hematuria”. For the same compound, the Main toxicity profile [7] was “hematologic with anemia and neutropenia and gastrointestinal with nausea, vomiting and anorexia” and the “Blood or plasma concentration” value [8] was 13.9 ng/mL.

Reference: US7348025B2, “Small particle liposome aerosols for delivery of anticancer drugs” (priority 1999, dated 2008)
